The results in this text go back to US8163768B2, “1,4-dihydropyridine-fused heterocycles, process for preparing the same, use and compositions containing them” (Aventis Pharma S.A.., priority 2005, dated 2012).

One experiment concerns the target T1, Aurora2 (Aurora-A) (Homo sapiens, UniProt O14965).
T1 construct: Aurora-A: the full length recombinant protein including an N-terminal poly-histidine tail has been expressed in E. coli; poly-histidine (N); made in house; host or cells: E. coli
T1 sequence (O14965 1-403): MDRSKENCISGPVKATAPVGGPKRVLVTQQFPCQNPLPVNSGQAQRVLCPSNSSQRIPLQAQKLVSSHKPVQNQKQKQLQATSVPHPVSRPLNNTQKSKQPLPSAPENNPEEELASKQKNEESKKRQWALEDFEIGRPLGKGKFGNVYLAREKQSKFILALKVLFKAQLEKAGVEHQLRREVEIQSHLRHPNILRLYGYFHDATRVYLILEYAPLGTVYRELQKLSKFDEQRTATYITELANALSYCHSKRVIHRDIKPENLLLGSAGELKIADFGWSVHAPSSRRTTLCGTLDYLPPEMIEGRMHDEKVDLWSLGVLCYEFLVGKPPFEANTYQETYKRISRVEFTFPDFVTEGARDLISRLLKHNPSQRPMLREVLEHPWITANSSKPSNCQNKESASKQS
The experiment is described as follows: Aurora 2 (Aurora A) kinase radioactivity scintillation assay using nickel chelate Flash plates. In kind it is biochemical. The following applies: 10 nM Aurora-A, 500 nM NuMA substrate, 1 μM ATP with [33P] ATP, 10 mM MgCl2, 30 minutes, 37° C. Summed up: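 10 nM Aurora-B or Aurora-A with 500 nM NuMA-His substrate, 1 μM ATP plus [³³P]ATP, in 50 mM NaCl, 1 mM DTT and 5 mM (B) or 10 mM (A) MgCl2, 30 min at 37° C on nickel-chelate plates. Incorporated ³³P counted after washing, background-subtracted; IC50 fitted from % inhibition versus concentration.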

A further experiment deals with T2, Aurora1 (Aurora-B) (Homo sapiens, UniProt Q96GD4).
T2 construct: Aurora-B: the full length protein (His tagged in N-terminal) has been co expressed in SF9 cells; poly-histidine (N); made in house; host or cells: SF9 cells
T2 sequence (Q96GD4 whole entry, species assumed): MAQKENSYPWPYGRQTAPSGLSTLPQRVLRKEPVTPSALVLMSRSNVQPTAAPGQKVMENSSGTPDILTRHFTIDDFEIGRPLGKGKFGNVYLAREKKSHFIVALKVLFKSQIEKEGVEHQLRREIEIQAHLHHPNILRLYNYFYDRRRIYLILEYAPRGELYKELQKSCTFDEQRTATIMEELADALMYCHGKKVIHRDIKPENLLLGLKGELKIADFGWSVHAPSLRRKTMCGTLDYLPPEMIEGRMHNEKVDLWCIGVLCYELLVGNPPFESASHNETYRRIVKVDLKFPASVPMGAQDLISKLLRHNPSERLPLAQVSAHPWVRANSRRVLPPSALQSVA
T2 sequence (Q9NQS7 821-918 partner limits assumed, species assumed): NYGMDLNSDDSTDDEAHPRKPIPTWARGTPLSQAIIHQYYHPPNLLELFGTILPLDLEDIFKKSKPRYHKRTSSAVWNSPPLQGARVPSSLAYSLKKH
The experiment is described as follows: Aurora 1 (Aurora B) kinase radioactivity scintillation assay using nickel chelate Flash plates. The conditions noted are these: 10 nM Aurora-B (co expressed with C3 fragment of INCEP), 500 nM NuMA substrate, 1 μM ATP with [33P] ATP, 5 mM MgCl2, 30 minutes, 37° C. In kind it is biochemical. As to the method: Aurora 1 and 2 (Respectively. Aurora B and A)
The inhibitory effect of compounds with respect to the Aurora 1 and 2 kinases is determined with a radioactivity scintillation assay using nickel chelate.
The kinase activity of Aurora is measured by the phosphorylation of NuMA-histidine substrate in the presence of radiolabelled ATP ([^33P] ATP) using 96 well Flash plates where the nickel-chelate is linked to the surface of the microplate. The amount of ^33P incorporated to the substrate NuMA is proportional to the aurora activity.
The Flash plates used are nickel-chelate 96 well plates (Perkin Elmer, model SMP107).
The products to be evaluated are incubated in a 100 μl reaction volume per well in the presence of 10 nM of Aurora-B or Aurora-A, 500 nM of NuMA substrate in the following buffer: 50 mM of NaCl, 5 mM MgCl2, (Aurora-B) or 10 mM MgCl2 (Aurora-A) and 1 mM of DTT at 37° C.
80 μL of enzyme/substrate incubation buffer is distributed in each well, followed by 10 μL of solution of compound to be measured with various concentrations. The reaction is started by adding 1 μM of ATP (final concentration) containing 0.2 μCi of [^33P] ATP (10 μL). After 30 minutes of incubation the reaction is stopped by removal of the reaction mixture and each well is washed twice with 300 μl of buffer Tris/HCl. The radioactivity is measured in each well using a Packard Top count scintillation counter instrument.
The enzymatic activity is expressed as counts per minute obtained in 30 minutes after subtraction of the background noise (reaction medium without enzyme). The measurement is expressed as percentage of inhibition of Aurora activity versus the control. To generate IC50 values, compounds of the invention are tested at different concentration and the percentage of inhibition are plotted as function of compound concentration, IC50s are calculated using the Xlfit 4 curve fitting software.

For the molecule `O=C1CCCC2=C1C(c1ccc(Sc3nc4cc(OC(F)F)ccc4[nH]3)o1)c1c[nH]nc1N2` (centres unmarked) [Example 76, 4-[5-(5-Difluoromethoxy-1H-benzimidazol-2-ylsulfanyl)-furan-2-yl]-2,4,6,7,8,9-hexahydro-pyrazolo[3,4-b]quinolin-5-one; compound with trifluoro-acetic acid], the IC50 on Aurora2 (Aurora-A) came to 46 nM; on Aurora1 (Aurora-B) it was 9 nM.

On to `COc1ccc2nc(Oc3ccc(C4C5=C(CCCC5=O)Nc5n[nH]cc54)o3)[nH]c2c1` (centres unmarked) [Example 77, 4-[5-(6-Methoxy-1H-benzimidazol-2-yloxy)-furan-2-yl]-2,4,6,7,8,9-hexahydro-pyrazolo[3,4-b]quinolin-5-one; compound with trifluoro-acetic acid], for which the IC50 at Aurora2 (Aurora-A) was 2480 nM; on Aurora1 (Aurora-B) it was 473 nM.

For the molecule `Cc1c[nH]c(Sc2ccc(C3C4=C(CCCC4=O)Nc4n[nH]cc43)o2)n1` (centres unmarked) [Example 78, 4-[5-(4-methyl-1H-imidazol-2-ylsulfanyl)-furan-2-yl]-2,4,6,7,8,9-hexahydro-pyrazolo[3,4-b]quinolin-5-one; compound with trifluoro-acetic acid], the IC50 on Aurora2 (Aurora-A) was 331 nM; on Aurora1 (Aurora-B), 121 nM.

Regarding `COc1ccc2[nH]c(Sc3ccc(C4C5=C(CCCC5=O)Nc5n[nH]cc54)o3)nc2c1` (centres unmarked) [Example 79, 4-[5-(5-Methoxy-1H-benzimidazol-2-ylsulfanyl)-furan-2-yl]-2,4,6,7,8,9-hexahydro-pyrazolo[3,4-b]quinolin-5-one; compound with trifluoro-acetic acid], the figures for the IC50 on Aurora2 (Aurora-A) and at Aurora1 (Aurora-B) were 70 nM and 15 nM, respectively.

`COc1ccc2[nH]c(Sc3ccc(C4C5=C(CNCC5=O)Nc5n[nH]cc54)o3)nc2c1` (centres unmarked) [Example 80, 4-[5-(5-Methoxy-1H-benzimidazol-2-ylsulfanyl)-furan-2-yl]-2,4,6,7,8,9-hexahydro-pyrazolo[3,4-b]-1,7-naphthyridin-5-one; compound with trifluoro-acetic acid]: the IC50 came to 495 nM at Aurora2 (Aurora-A) and 41 nM on Aurora1 (Aurora-B).

In the case of `COc1ccc2[nH]c(Sc3ccc(C4C5=C(CC(C)(C)CC5=O)Nc5n[nH]cc54)o3)nc2c1` (centres unmarked) [Example 81, 4-[5-(5-Methoxy-1H-benzimidazol-2-ylsulfanyl)-furan-2-yl]-7,7-dimethyl-2,4,6,7,8,9-hexahydro-pyrazolo[3,4-b]quinolin-5-one], the IC50 at Aurora2 (Aurora-A) came out at 33 nM; at Aurora1 (Aurora-B), 11 nM.

In the case of `Cn1c(Sc2ccc(C3C4=C(CCCC4=O)Nc4n[nH]cc43)o2)nc2ccccc21` (centres unmarked) [Example 82, 4-[5-(1-Methyl-1H-benzimidazol-2-ylsulfanyl)-furan-2-yl]-2,4,6,7,8,9-hexahydro-pyrazolo[3,4-b]quinolin-5-one; compound with trifluoro-acetic acid], the IC50 amounted to 1340 nM on Aurora2 (Aurora-A) and 150 nM on Aurora1 (Aurora-B).

For the molecule `Cn1c(Sc2ccc(C3C4=C(CC(C)(C)CC4=O)Nc4n[nH]cc43)o2)nc2ccccc21` (centres unmarked) [Example 84, 7,7-Dimethyl-4-[5-(1-methyl-1H-benzimidazol-2-ylsulfanyl)-furan-2-yl]-2,4,6,7,8,9-hexahydro-pyrazolo[3,4-b]quinoline-5-one], the IC50 on Aurora2 (Aurora-A) was 947 nM; on Aurora1 (Aurora-B), 177 nM.

For the molecule `O=C1CCCC2=C1C(c1ccc(Sc3nc4cc(Cl)c(Cl)cc4[nH]3)o1)c1c[nH]nc1N2` (centres unmarked) [Example 85, 4-[5-(5,6-Dichloro-1H-benzimidazol-2-ylsulfanyl)-furan-2-yl]-2,4,6,7,8,9-hexahydro-pyrazolo[3,4-b]quinolin-5-one; compound with trifluoro-acetic acid], the IC50 at Aurora2 (Aurora-A) was 22 nM; at Aurora1 (Aurora-B), 9 nM.

On to `O=C1CNCC2=C1C(c1ccc(Sc3nc4cc(Cl)c(Cl)cc4[nH]3)o1)c1c[nH]nc1N2` (centres unmarked) [Example 86, 4-[5-(5,6-Dichloro-1H-benzoimidazol-2-ylsulfanyl)-furan-2-yl]-2,4,6,7,8,9-hexahydro-pyrazolo[3,4-b]-1,7-naphthyridin-5-one; compound with trifluoro-acetic acid], for which the values for the IC50 on Aurora2 (Aurora-A) and on Aurora1 (Aurora-B) were 82 nM and 17 nM, respectively.

The IC50 is the concentration at which inhibition is half-maximal.
